Laboratory results taken from publication PMC3127977, “No relevant cardiac, pharmacokinetic or safety interactions between roflumilast and inhaled formoterol in healthy subjects: an open-label, randomised, actively controlled study” (BMC Clinical Pharmacology, 2011).
Like-named read-outs stand apart in the source and are kept apart here. Values belong to the molecule of their own block, whether it stands above or below them.

Assays:
[1] = cited from earlier work
[2] = test system: human parenchymal and bronchial explants; settings: in vitro; cited from earlier work
[3] = test system: healthy subjects; experiment: Transthoracic impedance cardiography (ZCG) and systolic time intervals in healthy men; oral roflumilast 500 μg once daily, inhaled formoterol 24 μg twice daily; settings: Regimen B
Experimental: (§1) For Regimen A, subjects received 500 μg oral roflumilast once daily (daily dose: one tablet of roflumilast 500 μg) from the morning of Day 2 to the morning of Day 18. […] For Regimen B, subjects received 24 μg formoterol for oral inhalation delivered by a DPI device (Foradil® P) twice daily, once in the morning and once in the evening from the morning of Day 2 to the evening of Day 18.
Cardiovascular effects were evaluated non-invasively by means of ECGs (cardiac rhythm, intra-cardiac conduction and ventricular repolarisation), oscillometric blood pressure and transthoracic impedance cardiography (ZCG; systolic time intervals, contractility indices and estimates of stroke volume and cardiac output). Cardiovascular assessments (oscillometric blood pressure, pulse rate, 12-lead ECG, and three-lead ZCG) were recorded before dosing and at 10, 20, 40 and 60 minutes, and at 2, 3, 4, 5, 6, 7 and 8 hours after morning dosing. […] All cardiovascular measurements were carried out after the subjects had been recumbent for at least 10 minutes; they generally stayed in bed from 1 hour before until 8 hours after morning dosing.
Systolic time intervals (STIs) and ZCG estimates of the systolic cardiac pump performance were derived from the simultaneous registration of a one-lead ECG, a phonocardiogram (PCG), and the rate of change of the transthoracic impedance (dZ/dt) to an AC current applied through the thoracic cage (CARDIODYNAGRAPH; Diefenbach GmbH, Wiesbaden, Germany). Tracings were captured and stored digitally during the study and subsequently analysed after the study by displaying the analogue ECG, PCG and ZCG signals on a computer screen. The relevant signal amplitudes and time intervals were delineated manually by operator-steered cursors; measurements were made for at least 10 artefact-free consecutive cardiac cycles. From these tracings, the following variables were derived by direct measurement: RR interval (ms), total electromechanic systole (QS2 [ms]), ventricular ejection time (VET [ms]), baseline transthoracic impedance (Z0 [Ω]), and maximum negative velocity of transthoracic impedance changes during the cardiac cycle (dZ/dtmax [Ω/s]). These variables were analysed for the 10 cycles and their means were used in the calculations of the following variables: heart rate (HR [bpm]), pre-ejection period (PEP [ms] = QS2 - VET), HR-corrected STIs (STIc and STIi according to Weissler et al.), ZCG estimates of stroke volume (SV [mL] according to Kubicek's equation [37] using the equation of Geddes and Sadler for the specific resistance of blood), cardiac output (CO [mL/min]), and total peripheral resistance (TPR [dyn.s.cm^-5]). For the latter variable, the mean blood pressure (MBP [mmHg]) was used as calculated according to Wezler and Böger from the systolic blood pressure (mmHg) and the diastolic blood pressure (mmHg).
ZCG analysis was carried out by a single analyst who was blinded with regard to subject, study regimen, profiling day within regimen, and time during the day.

[4] = Serum potassium concentration on profiling days; settings: Regimen B, Day 8
Excerpt: (§2) During the main profiling days, blood was sampled at each ZCG time point for the determination of serum glucose and potassium concentrations.

[5] = Steady-state plasma pharmacokinetics (HPLC-MS/MS) in healthy men; oral roflumilast 500 μg once daily, inhaled formoterol 24 μg twice daily; settings: for Cmax: Cmax (formoterol)
Experimental: as §1
Pre-dose blood samples for determination of trough levels were taken on Days 9 and 10 for Regimen A (morning only), and on Days 6 and 7 (morning and evening) for Regimen B. Blood samples (4.5 mL) were collected in heparinised tubes and plasma was obtained by centrifugation at 1550 g for 15 minutes. Plasma samples were stored at -20°C or below for roflumilast, and at -70°C for formoterol. Plasma concentrations of roflumilast and roflumilast N-oxide were determined using high-performance liquid chromatography coupled with tandem mass spectrometry (HPLC-MS/MS). […] Roflumilast and roflumilast N-oxide standard curves were valid up to 20 ng/mL and 40 ng/mL, respectively. Determination of roflumilast and roflumilast N-oxide was performed at Altana Pharma AG, Konstanz, Germany (Nycomed GmbH). Plasma concentrations of formoterol were determined using HPLC-MS/MS. The LLOQ in plasma was 0.4 pg/mL using a sample volume of 1.0 mL. […] Determination of formoterol was performed at pharm-analyt Labor GmbH, Baden, Austria, under the supervision of Altana Pharma AG(Nycomed GmbH).
For roflumilast, roflumilast N-oxide and formoterol, the maximum plasma concentration (Cmax) was derived directly from the plasma concentrations. The AUC from time zero to the time of the last quantifiable concentration, which corresponded to the dosing interval of each analyte (AUC0-τ), was estimated using the linear trapezoidal method. Apparent clearance at steady state (CL/F; calculated by dose/AUCτ) was reported for roflumilast only. […] The calculation of tPDE4i was based on the equation described in Lahu et al..

[6] = Serum glucose concentration on profiling days; settings: Regimen B, throughout Day 8 compared with Day 1
Excerpt: as §2

[7] = test system: healthy subjects; experiment: Digital 12-lead electrocardiography (HR, QT, QTc); type: in vivo, human
Experimental: Digital 12-lead ECGs were recorded immediately after each ZCG recording. Tracings were analysed off-study by regimen-blinded qualified analysts, using previously reported methodology. For each time point, three cycles were measured with regard to the RR, PQ and QT-intervals [ms]. The means of the three measurements were used for the calculation of HR and HR-corrected QTc intervals, according to Bazett's equation (QTcB = QT/RR^1/2) and Fridericia's equation (QTcF = QT/RR^1/3).

[8] = test system: healthy subjects; experiment: Adverse event monitoring; type: in vivo, human
Excerpt: Blood and urine samples for conventional clinical laboratory safety tests were obtained at the screening visit, in the morning of each main profiling day, and on Day 19. Adverse events (AEs) were monitored throughout the study.

[9] = cited from earlier work; remark: listed apart in the source
[10] = CYP3A4 inhibitors co-administered with roflumilast

SMILES: CC(=O)N1CCN(c2ccc(OCC3COC(Cn4ccnc4)(c4ccc(Cl)cc4Cl)O3)cc2)CC1 (centres unmarked) [ketoconazole]
increase of tPDE4i [1, 10]: 8-9%

SMILES: COc1ccc(CC(C)NCC(O)c2ccc(O)c(NC=O)c2)cc1 (centres unmarked) [Formoterol]
inhibitory effect of roflumilast on cytokine and tumour necrosis factor-α production [2]: increased
CO, Day 1-matched post-dose maximum dmax (δ), median ([3]; Day 8 (F)): 2.9 L/min
CO, Day 1-matched post-dose minimum dmin (δ), median ([3]; Day 8 (F)): -0.6 L/min
CO, untransformed post-dose maximum dmax (U), median ([3]; Day 8 (F)): 11.8 L/min
CO, untransformed post-dose minimum dmin (U), median ([3]; Day 8 (F)): 8.2 L/min
CO, untransformed pre-dose morning value, median ([3]; Day 8 (F)): 9.7 L/min
HR, Day 1-matched post-dose maximum dmax (δ), median ([3]; Day 8 (F)): 16 bpm
HR, Day 1-matched post-dose minimum dmin (δ), median ([3]; Day 8 (F)): -2 bpm
HR, untransformed post-dose maximum dmax (U), median ([3]; Day 8 (F)): 72 bpm
HR, untransformed post-dose minimum dmin (U), median ([3]; Day 8 (F)): 62 bpm
HR, untransformed pre-dose morning value, median ([3]; Day 8 (F)): 66 bpm
PEP, Day 1-matched post-dose maximum dmax (δ), median ([3]; Day 8 (F)): 25 ms
PEP, Day 1-matched post-dose minimum dmin (δ), median ([3]; Day 8 (F)): -26 ms
PEP, untransformed post-dose maximum dmax (U), median ([3]; Day 8 (F)): 117 ms
PEP, untransformed post-dose minimum dmin (U), median ([3]; Day 8 (F)): 84 ms
PEP, untransformed pre-dose morning value, median ([3]; Day 8 (F)): 97 ms
QS2, Day 1-matched post-dose maximum dmax (δ), median ([3]; Day 8 (F)): 13 ms
QS2, Day 1-matched post-dose minimum dmin (δ), median ([3]; Day 8 (F)): -47 ms
QS2, untransformed post-dose maximum dmax (U), median ([3]; Day 8 (F)): 440 ms
QS2, untransformed post-dose minimum dmin (U), median ([3]; Day 8 (F)): 408 ms
QS2, untransformed pre-dose morning value, median ([3]; Day 8 (F)): 431 ms
TPR, Day 1-matched post-dose maximum dmax (δ), median ([3]; Day 8 (F)): 61 dyn.s.cm^-5
TPR, Day 1-matched post-dose minimum dmin (δ), median ([3]; Day 8 (F)): -221 dyn.s.cm^-5
TPR, untransformed post-dose maximum dmax (U), median ([3]; Day 8 (F)): 882 dyn.s.cm^-5
TPR, untransformed post-dose minimum dmin (U), median ([3]; Day 8 (F)): 561 dyn.s.cm^-5
TPR, untransformed pre-dose morning value, median ([3]; Day 8 (F)): 668 dyn.s.cm^-5
dZ/dt, Day 1-matched post-dose maximum dmax (δ), median ([3]; Day 8 (F)): 0.32 Ω/s
dZ/dt, Day 1-matched post-dose minimum dmin (δ), median ([3]; Day 8 (F)): -0.29 Ω/s
dZ/dt, untransformed post-dose maximum dmax (U), median ([3]; Day 8 (F)): 2.10 Ω/s
dZ/dt, untransformed post-dose minimum dmin (U), median ([3]; Day 8 (F)): 1.64 Ω/s
dZ/dt, untransformed pre-dose morning value, median ([3]; Day 8 (F)): 1.94 Ω/s
CO, dmax (U), point estimate (95% CI) of difference between days ([3]; Day 8-Day 1): 1.7 (0.6 to 2.6) L/min
CO, dmin (U), point estimate (95% CI) of difference between days ([3]; Day 8-Day 1): 0.5 (-0.5 to 1.4) L/min
CO, untransformed pre-dose morning value, point estimate (95% CI) of difference between days ([3]; Day 8-Day 1): 0.7 (-0.9 to 2.0) L/min
HR, dmax (U), point estimate (95% CI) of difference between days ([3]; Day 8-Day 1): 9 (5 to 11) bpm
HR, dmin (U), point estimate (95% CI) of difference between days ([3]; Day 8-Day 1): 7 (3 to 10) bpm
HR, untransformed pre-dose morning value, point estimate (95% CI) of difference between days ([3]; Day 8-Day 1): 5 (2 to 9) bpm
PEP, dmax (U), point estimate (95% CI) of difference between days ([3]; Day 8-Day 1): -4 (-14 to 2) ms
PEP, dmin (U), point estimate (95% CI) of difference between days ([3]; Day 8-Day 1): 0 (-7 to 6) ms
PEP, untransformed pre-dose morning value, point estimate (95% CI) of difference between days ([3]; Day 8-Day 1): -7 (-22 to 7) ms
QS2, dmax (U), point estimate (95% CI) of difference between days ([3]; Day 8-Day 1): -14 (-27 to 4) ms
QS2, dmin (U), point estimate (95% CI) of difference between days ([3]; Day 8-Day 1): -13 (-22 to -3) ms
QS2, untransformed pre-dose morning value, point estimate (95% CI) of difference between days ([3]; Day 8-Day 1): -4 (-18 to 9) ms
TPR, dmax (U), point estimate (95% CI) of difference between days ([3]; Day 8-Day 1): -49 (-160 to 80) dyn.s.cm^-5
TPR, dmin (U), point estimate (95% CI) of difference between days ([3]; Day 8-Day 1): -96 (-188 to -24) dyn.s.cm^-5
TPR, untransformed pre-dose morning value, point estimate (95% CI) of difference between days ([3]; Day 8-Day 1): -18 (-198 to 70) dyn.s.cm^-5
dZ/dt, dmax (U), point estimate (95% CI) of difference between days ([3]; Day 8-Day 1): 0.01 (-0.15 to 0.21) Ω/s
dZ/dt, dmin (U), point estimate (95% CI) of difference between days ([3]; Day 8-Day 1): 0.03 (-0.13 to 0.17) Ω/s
dZ/dt, untransformed pre-dose morning value, point estimate (95% CI) of difference between days ([3]; Day 8-Day 1): 0.06 (-0.07 to 0.19) Ω/s
pre-dose serum potassium concentration [4]: 4.38 mmol/L
drug-drug interaction with roflumilast ([1]; orally co-administered formoterol, Phase I study, ref unpublished data, Nycomed GmbH, 2002): no apparent drug-drug interaction
changes in steady-state pharmacokinetics when the other drug was added ([5]; formoterol added to roflumilast, or roflumilast added to formoterol): no changes
Cmax ([5]; male, human, in vivo, 24 μg, steady state, Regimen B Day 8 (formoterol alone), geometric mean (68% range)): 16.7 ng/mL
AUC ([5]; male, human, in vivo, AUCτ (formoterol), steady state, Regimen A Day 18 (roflumilast plus formoterol), geometric mean (68% range)): 93.2 ng·h/mL
Cmax ([5]; male, human, in vivo, steady state, Regimen A Day 18 (roflumilast plus formoterol), geometric mean (68% range)): 18.7 ng/mL
Cmax ([5]; male, human, in vivo, steady state, Regimen B Day 18 (formoterol plus roflumilast), geometric mean (68% range)): 17.2 ng/mL
Ctrough (formoterol) ([5]; steady state, Regimen A Day 18 (roflumilast plus formoterol), geometric mean (68% range)): 4.23 (2.43-7.38) μg/L
Ctrough (formoterol) ([5]; steady state, Regimen B Day 8 (formoterol alone), geometric mean (68% range)): 4.12 (3.05-5.57) μg/L
Ctrough (formoterol) ([5]; steady state, Regimen B Day 18 (formoterol plus roflumilast), geometric mean (68% range)): 3.94 (3.13-4.96) μg/L
post-dose serum glucose [6]: slight post-dose increase
HR (ECG) ([7]; 12-lead ECG): slight increase
QTc values, uncorrected or corrected using Bazett's or Fridericia's formula ([7]; 12-lead ECG): no clinically relevant changes
duration of the QT interval ([7]; 12-lead ECG): decrease
QT/QTc intervals ([7]; all subjects, all regimens): below 450 ms
number of AEs ([8]; Regimen B, Day 2 to Day 8): no AEs were reported
tremor ([8]; administered alone (Regimens A and B respectively)): not observed

SMILES: CCCC1O[C@@H]2C[C@H]3[C@@H]4CCC5=CC(=O)C=C[C@]5(C)[C@H]4[C@@H](O)C[C@]3(C)[C@]2(C(=O)CO)O1 (some centres unmarked) [budesonide]
pharmacokinetic interaction on co-administration with roflumilast ([1]; healthy volunteers): no relevant pharmacokinetic interactions

changes in steady-state pharmacokinetics when the other drug was added ([5]; in vivo): no relevant changes
SMILES: O=C(Nc1c(Cl)c[n+]([O-])cc1Cl)c1ccc(OC(F)F)c(OCC2CC2)c1 [Roflumilast N-oxide]
AUC greater than that of roflumilast [9]: 10 fold
median effective plasma half-life ([9]; repeated dose): 30 h
median time to maximum plasma concentration (tmax) ([9]; repeated dose): 8 h

SMILES: CCn1cc(C(=O)O)c(=O)c2cc(F)c(N3CCNCC3)nc21 [enoxacin]
increase of tPDE4i ([1]; CYP1A2 or dual CYP3A4/1A2 inhibitor co-administered with roflumilast): 25%

SMILES: CC[C@H]1OC(=O)[C@H](C)[C@@H](O[C@H]2C[C@@](C)(OC)[C@@H](O)[C@H](C)O2)[C@H](C)[C@@H](O[C@@H]2O[C@H](C)C[C@H](N(C)C)[C@H]2O)[C@](C)(O)C[C@@H](C)C(=O)[C@H](C)[C@@H](O)[C@]1(C)O [erythromycin]
increase of tPDE4i [1, 10]: 8-9%
